Measured values from BindingDB's records for doi:10.1016/0960-894X(95)00473-7 (1995).

Molecular target: 5-hydroxytryptamine receptor 1D (Bos taurus)
Experiment: Ability to bind to 5-hydroxytryptamine 1D receptor of calf substantia nigra

Structure (SMILES) | IC50 [nM]
c1ccc2c(c1)CCC(CNCCCNC1=NCCCC1)O2 (stereo not given) | 4
c1cnc(NCCCNCC2CCc3ccccc3O2)nc1 (stereo not given) | 1.6
c1ccc2c(c1)CCC(CNCCCNc1cnccn1)O2 (stereo not given) | 10
COc1ccc2c(c1)OC(CNCCCNC1=NCCCN1)CC2 (stereo not given) | 3.2
Clc1ccc(NCCCNCC2CCc3ccccc3O2)nn1 (stereo not given) | 2
c1ccc2c(c1)CCC(CNCCCNc1ccncn1)O2 (stereo not given) | 10
c1ccc2c(c1)CCC(CNCCCNC1=NCCCN1)C2 (stereo not given) | 40
c1ccc2c(c1)CCC(CNCCCNC1=NCCN1)O2 (stereo not given) | 6.3
c1ccc2c(c1)CCC(CNCCCCCNC1=NCCCN1)O2 (stereo not given) | 10

The remaining compounds from weak to strong by IC50, led by results:

IC50 [nM] | Structure (SMILES)
158 | O=C1CCCN=C(NCCCNCC2CCc3ccccc3O2)N1 (stereo not given)
126 | c1ccc2c(c1)CC(CNCCCNC1=NCCCN1)O2 (stereo not given)
7.9 | c1ccc2c(c1)CCC(CNCCCNc1nccs1)O2 (stereo not given)
7.9 | Fc1ccc2c(c1)CCC(CNCCCNC1=NCCCN1)O2 (stereo not given)
3.2 | CC(C)NC(=N)NNCCCNCC1CCc2ccccc2O1 (stereo not given)
0.794 | COc1cccc2c1OC(CNCCCNC1=NCCCN1)CC2 (stereo not given)
